# Measured values as given in paper PMC11427369 (Frontiers in Pharmacology, 2024).
# What was measured:
# C2IIa = C2IIa (Clostridium botulinum, UniProt O86171); assay type: biochemical
# PA63 = molecular target: T1, PA63 (Bacillus anthracis, UniProt P13423); assay type: biochemical
# T1 construct: gene pagA
# T1 sequence (P13423 197-764 limits assumed): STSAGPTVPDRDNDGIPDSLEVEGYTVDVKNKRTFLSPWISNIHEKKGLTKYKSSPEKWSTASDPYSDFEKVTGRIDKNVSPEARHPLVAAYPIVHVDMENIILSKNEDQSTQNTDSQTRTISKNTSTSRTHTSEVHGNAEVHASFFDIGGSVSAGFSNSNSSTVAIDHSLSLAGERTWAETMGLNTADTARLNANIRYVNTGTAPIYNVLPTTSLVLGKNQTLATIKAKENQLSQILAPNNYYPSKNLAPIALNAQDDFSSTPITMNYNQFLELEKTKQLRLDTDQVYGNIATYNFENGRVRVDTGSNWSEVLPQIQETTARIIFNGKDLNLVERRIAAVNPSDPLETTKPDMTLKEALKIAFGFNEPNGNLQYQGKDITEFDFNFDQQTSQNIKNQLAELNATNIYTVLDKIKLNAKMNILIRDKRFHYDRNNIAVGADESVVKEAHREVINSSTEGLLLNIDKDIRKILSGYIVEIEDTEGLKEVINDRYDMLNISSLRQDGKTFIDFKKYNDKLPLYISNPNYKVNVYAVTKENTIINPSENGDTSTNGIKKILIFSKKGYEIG
# Sequence of C2IIa (O86171 182-721 limits assumed): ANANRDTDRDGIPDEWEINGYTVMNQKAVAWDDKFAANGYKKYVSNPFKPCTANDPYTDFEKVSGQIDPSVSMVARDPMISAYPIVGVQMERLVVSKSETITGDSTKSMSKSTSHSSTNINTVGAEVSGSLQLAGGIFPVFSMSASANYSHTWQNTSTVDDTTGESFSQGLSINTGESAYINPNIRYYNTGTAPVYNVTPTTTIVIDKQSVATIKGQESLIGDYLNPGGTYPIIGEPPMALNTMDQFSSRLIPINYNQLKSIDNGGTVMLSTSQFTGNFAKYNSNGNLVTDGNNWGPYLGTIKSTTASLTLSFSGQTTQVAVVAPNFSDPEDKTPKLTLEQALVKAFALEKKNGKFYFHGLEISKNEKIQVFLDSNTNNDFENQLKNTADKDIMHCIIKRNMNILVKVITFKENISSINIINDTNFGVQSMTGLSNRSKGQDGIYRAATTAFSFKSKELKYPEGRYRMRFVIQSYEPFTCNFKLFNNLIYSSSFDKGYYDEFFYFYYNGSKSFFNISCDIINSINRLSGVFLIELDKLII
smiles,measurement,setting,value
CCN(CC)C(=S)SSC(=S)N(CC)CC [disulfiram],"pore conductance block, planar lipid bilayer",C2IIa,addition of DSF led to an immediate block of any current flowing
same,"pore conductance block, planar lipid bilayer",PA63,"addition of DSF immediately blocked any current flow, leading to zero level of conductance"
